According to patent publication US20230263822A1, “MODULATION OF FACTOR 11 EXPRESSION” (Ionis Pharmaceuticals, Inc., priority 2008, published 2023):
Read-outs that look alike come from different tables or passages of the source.

Experiments:
[1] = mouse, in vivo, sc, 50 mg/kg
[2] = rat, in vivo, sc, 50 mg/kg
[3] = rat, in vivo, sc, 50 mg/kg; remark: listed apart in the source
[4] = mouse, in vivo, sc, 50 mg/kg; remark: listed apart in the source
[5] = rat, in vivo, sc, 50 mg/kg; remark: listed apart in the source
[6] = mouse, in vivo, sc, 50 mg/kg; remark: listed apart in the source

## ISIS 416861: MOE gapmer, nucleobases 1275 to 1318 of SEQ ID NO: 1 (Table 8) (antisense GCGGACGGCATTGGTGCACA; MOE gapmer, wing and gap sizes not given here)
[1]
  ALT: 38 IU/L
  AST: 85 IU/L
  Bilirubin: 0.27 mg/dL
  Cholesterol: 133 mg/dL
[2]
  ALT: 89 IU/L
  AST: 154 IU/L
  Albumin: 5
  Bilirubin: 0.15 mg/dL
[3]
  HCT: 45%
  Lymphocyte: 12865
  Neutrophil: 1813
  Platelets: 1008
  RBC: 7.7 10^6/μL
  WBC: 15 10^3/μL
  hemoglobin: 14.6 g/dL
[4]
  BUN: 23 mg/dL
[5]
  BUN: 22 mg/dL
  Creatinine: 39 mg/dL
  Total urine protein: 205 mg/dL
  Urine protein/creatinine ratio: 5.1
[6]
  HCT: 48%
  Lymphocyte: 5119 cells/μL
  Neutrophil: 1122 cells/μL
  Platelets: 836 10^3/μL
  RBC: 9 10^6/μL
  WBC: 7 10^3/μL
  hemoglobin: 14 g/dL
  monocytes: 219 cells/μL

## ISIS 416863: MOE gapmer, nucleobases 1275 to 1318 of SEQ ID NO: 1 (Table 8) (antisense CAGCGGACGGCATTGGTGCA; MOE gapmer, wing and gap sizes not given here)
[1]
  ALT: 41 IU/L
  AST: 101 IU/L
  Bilirubin: 0.24 mg/dL
  Cholesterol: 118 mg/dL
[2]
  ALT: 47 IU/L
  AST: 78 IU/L
  Albumin: 4
  Bilirubin: 0.13 mg/dL
[3]
  HCT: 45%
  Lymphocyte: 14669
  Neutrophil: 1720
  Platelets: 674
  RBC: 7.6 10^6/μL
  WBC: 17 10^3/μL
  hemoglobin: 14.1 g/dL
[4]
  BUN: 22 mg/dL
[5]
  BUN: 29 mg/dL
  Creatinine: 73 mg/dL
  Total urine protein: 269 mg/dL
  Urine protein/creatinine ratio: 3.8
[6]
  HCT: 48%
  Lymphocyte: 5617 cells/μL
  Neutrophil: 1330 cells/μL
  Platelets: 1131 10^3/μL
  RBC: 9 10^6/μL
  WBC: 7 10^3/μL
  hemoglobin: 14 g/dL
  monocytes: 226 cells/μL

## ISIS 416866: MOE gapmer, nucleobases 1275 to 1318 of SEQ ID NO: 1 (Table 8) (antisense CTGGCAGCGGACGGCATTGG; MOE gapmer, wing and gap sizes not given here)
[1]
  ALT: 36 IU/L
  AST: 120 IU/L
  Bilirubin: 0.29 mg/dL
  Cholesterol: 113 mg/dL
[2]
  ALT: 41 IU/L
  AST: 78 IU/L
  Albumin: 4
  Bilirubin: 0.16 mg/dL
[3]
  HCT: 44%
  Lymphocyte: 16834
  Neutrophil: 1916
  Platelets: 900
  RBC: 7.8 10^6/μL
  WBC: 20 10^3/μL
  hemoglobin: 14.0 g/dL
[4]
  BUN: 22 mg/dL
[5]
  BUN: 22 mg/dL
  Creatinine: 85 mg/dL
  Total urine protein: 486 mg/dL
  Urine protein/creatinine ratio: 6.2
[6]
  HCT: 51%
  Lymphocyte: 4621 cells/μL
  Neutrophil: 1201 cells/μL
  Platelets: 1045 10^3/μL
  RBC: 9 10^6/μL
  WBC: 6 10^3/μL
  hemoglobin: 15 g/dL
  monocytes: 211 cells/μL

## ISIS 416867: MOE gapmer, nucleobases 1275 to 1318 of SEQ ID NO: 1 (Table 8) (antisense ACTGGCAGCGGACGGCATTG; MOE gapmer, wing and gap sizes not given here)
[1]
  ALT: 45 IU/L
  AST: 82 IU/L
  Bilirubin: 0.21 mg/dL
  Cholesterol: 144 mg/dL
[2]
  ALT: 47 IU/L
  AST: 126 IU/L
  Albumin: 4
  Bilirubin: 0.17 mg/dL
[3]
  HCT: 45%
  Lymphocyte: 10405
  Neutrophil: 3044
  Platelets: 705
  RBC: 7.8 10^6/μL
  WBC: 14 10^3/μL
  hemoglobin: 14.0 g/dL
[4]
  BUN: 20 mg/dL
[5]
  BUN: 22 mg/dL
  Creatinine: 70 mg/dL
  Total urine protein: 217 mg/dL
  Urine protein/creatinine ratio: 3.1
[6]
  HCT: 47%
  Lymphocyte: 6078 cells/μL
  Neutrophil: 1404 cells/μL
  Platelets: 1006 10^3/μL
  RBC: 10 10^6/μL
  WBC: 8 10^3/μL
  hemoglobin: 14 g/dL
  monocytes: 188 cells/μL
